According to patent publication US20250360145A1, “CSF-1R INHIBITORS AND USES THEREOF” (Myrobalan Therapeutics, Inc., priority 2022, published 2025):
Where two headings read alike, the source gives them in different places.

What was measured:
PDGFRβ = PDGFRβ (Homo sapiens (Human), UniProt P09619); assay: Biochemical HTRF kinase assay, PDGFRβ; settings: for IC50: recombinant human protein, read-out: PDGFR-1β IC50; for PDGFR-1β Fold: selectivity: IC50 of PDGFR-1β as multiple of IC50 of CSF-1R;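 on all read-outs here: kinase reaction with substrate/ATP mix run 1 h at room temperature in 384-well format, HTRF signal detection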
[1] = tested on: ERK1/2 phosphorylation in BV2 cells; assay: p-ERK1/2 Western blot assay in BV2 cells; type: cell-based, murine; settings: Mus musculus, BV-2, 30 minutes pretreatment, CSF1 100 ng/mL 5 minutes
[2] = In vivo PK study (plasma and brain exposure); set-up: species or system CD1 mouse; settings: for Kp uu / half-life / AUC(0-t) / AUC(0-inf) / clearance / Vd / bioavailability / Cmax / Tmax: male; for Kp uu: CD1, brain, BBB penetration; for half-life: CD1, mouse; for clearance: read-out: IV-2mpk CL (converted); for Vd: read-out: IV-2mpk VSS; for bioavailability: p.o. 45 mg/kg vs i.v. 2 mg/kg; for Cmax: read-out: PO-45mpk Cmax; for Tmax: read-out: PO-45mpk Tmax
Method: The PK profiles were determined in CD1 mouse, and all the procedures and protocols were in accordance with the National Institutes of Health Guide for the Care and Use of Laboratory Animals. The CD1 mouse were purchased from JH Laboratory Animal Co. LTD. The CD1 mouse (23-30 g, 6-8 weeks, male) were randomized and divided into five groups consisting of 21 mouse per group. The test compounds that have been formulated were subjected to PK studies. The test compounds were administrated via p.o. at 45 mg/kg and i.v. at 2 mg/kg. […] The blood samples were placed on wet ice, and serum was collected after centrifugation. Serum samples were frozen and stored at −70° C. The brain samples were dried on filtrate paper, and snap frozen on dry ice and further stored at −70° C. Then, the blood samples and brain samples were further analyzed by LC-MS/MS (Triple Quad 6500+).

BV2 cells = assay: BV2 cell proliferation (Cell Titer Glo); type: cell-based, murine; settings: Mus musculus, BV-2, CSF1 100 ng/mL, 72 h
[3] = tested on: CSF1R phosphorylation in BV2 cells; assay: p-CSF1R Western blot assay in BV2 cells; type: cell-based, murine; settings: Mus musculus, BV-2, 30 minutes pretreatment, CSF1 100 ng/mL 5 minutes
[4] = tested on: CSF1R phosphorylation in THP-1 cells; assay: Inhibition of CSF1R phosphorylation in THP-1 monocytes (ELISA, Table D); type: cell-based, human; settings: FIG. 6
Method: The THP-1 human monocyte-like cell line has intact CSF1R signaling that allows for the probing of the activation status of this pathway when stimulated by recombinant CSF. THP-1 cells were expanded in-vitro and pretreated with CSF1R inhibitors for an hour prior to stimulation with recombinant human M-CSF for 5 minutes. The cells were lysed, and the lysate was probed for activated CSF1R (pCSF1R) using ELISA. Using GraphPad Prism, a four-parameter logistic regression was applied to determine the potency of the CSF1R inhibitors.

[5] = tested on: CSF1R phosphorylation in THP-1 cells; assay: p-CSF1R ELISA assay in THP1 cells; type: cell-based; settings: Homo sapiens, THP1 cells pre-treated one hour, stimulated with hCSF1, read-out: THP1 pCSFIR ELISA EC50
[6] = tested on: microglia (Iba1+ cells) in cortex and hippocampus; assay: In vivo microglial depletion; set-up: species or system C57BL/6 mice; settings: for Mean Cortical Ibal + Cell Density ± SEM (mm^−2) / Mean Hippocampal Ibal + Cell Density ± SEM (mm^−2): oral gavage BID 7 days; for Mean Cortical Ibal + Cell Density ± SEM (mm^−2): cortex; for Mean Hippocampal Ibal + Cell Density ± SEM (mm^−2): hippocampus
Method: To measure the in vivo pharmacodynamic effect, we quantified microglial depletion following repeated dosing of our compound in naive animals. Female C57BL/6 mice were given Example 134 (0, 50, 100, or 200 mg/kg/day, respectively) by oral gavage BID for 7 days. Following the final dose, mice were perfused with PBS followed by 4% paraformaldehyde (PFA). Brains were post-fixed overnight in 4% PFA and then transferred to 30% sucrose solution. Sagittal sections were sliced and stained for the microglial marker Iba1 and counterstained for DAPI. Brain sections were then imaged under 20× wide-field imaging, and the microglia density was quantified in the cortex and hippocampus.

[7] = serum, iv, 2 mg/kg, CD1 mouse, i.v. 2 mg/kg, read-out: IV-2mpk T1/2 (converted)
[8] = serum, po, 45 mg/kg, CD1 mouse, p.o. 45 mg/kg, read-out: PO-45mpk T1/2 (converted)
[9] = CD1, po, mouse, p.o. 45 mg/kg, brain, read-out: PO-45mpk AUClast-brain
[10] = CD1, po, mouse, p.o. 45 mg/kg, plasma, Tables 7 and 8, read-out: PO-45mpk AUClast-plasma
[11] = serum, iv, CD1 mouse, i.v. 2 mg/kg, read-out: IV-2mpk AUCInf
[12] = serum, iv, CD1 mouse, i.v. 2 mg/kg, read-out: IV-2mpk AUClast
[13] = serum, iv, CD1 mouse, i.v. 2 mg/kg
[14] = serum, po, CD1 mouse, p.o. 45 mg/kg, Tables 5 and 6, read-out: PO-45mpk AUClast
[15] = serum, po, CD1 mouse, p.o. 45 mg/kg, read-out: PO-45mpk AUCInf
[16] = serum, po, CD1 mouse, p.o. 45 mg/kg

PDGFRβ, sequence (P09619 33-1106): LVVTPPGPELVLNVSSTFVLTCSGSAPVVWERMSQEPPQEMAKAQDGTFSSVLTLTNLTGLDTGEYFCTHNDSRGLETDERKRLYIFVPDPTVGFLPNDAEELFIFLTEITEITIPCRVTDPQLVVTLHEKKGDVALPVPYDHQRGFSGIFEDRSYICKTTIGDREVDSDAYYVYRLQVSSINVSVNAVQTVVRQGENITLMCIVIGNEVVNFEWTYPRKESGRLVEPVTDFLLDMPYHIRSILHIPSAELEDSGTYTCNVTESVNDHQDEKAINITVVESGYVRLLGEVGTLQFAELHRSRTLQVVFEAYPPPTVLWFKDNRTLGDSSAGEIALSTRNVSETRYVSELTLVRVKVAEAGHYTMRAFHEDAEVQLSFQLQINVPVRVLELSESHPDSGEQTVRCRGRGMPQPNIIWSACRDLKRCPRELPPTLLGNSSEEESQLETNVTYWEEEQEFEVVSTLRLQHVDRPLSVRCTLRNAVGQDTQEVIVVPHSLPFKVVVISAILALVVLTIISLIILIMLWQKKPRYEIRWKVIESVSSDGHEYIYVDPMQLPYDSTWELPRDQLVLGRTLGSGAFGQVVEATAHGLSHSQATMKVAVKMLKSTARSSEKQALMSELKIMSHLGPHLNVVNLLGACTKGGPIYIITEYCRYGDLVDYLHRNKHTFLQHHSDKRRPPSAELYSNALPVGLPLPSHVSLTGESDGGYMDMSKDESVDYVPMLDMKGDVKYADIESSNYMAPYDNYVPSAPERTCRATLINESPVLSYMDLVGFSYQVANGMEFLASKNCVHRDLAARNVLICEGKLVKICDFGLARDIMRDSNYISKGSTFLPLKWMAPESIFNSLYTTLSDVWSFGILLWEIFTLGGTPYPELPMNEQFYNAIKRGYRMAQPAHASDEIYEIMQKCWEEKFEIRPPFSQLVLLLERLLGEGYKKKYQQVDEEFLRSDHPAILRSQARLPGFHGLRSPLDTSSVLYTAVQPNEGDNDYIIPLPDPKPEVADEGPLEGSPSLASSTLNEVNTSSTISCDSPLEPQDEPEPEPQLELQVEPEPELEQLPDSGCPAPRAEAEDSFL

SMILES: COc1ccc(COc2ncc(Cc3ccnc4cc(OC)cnc34)cc2OC)nc1 [Example 16, 3-methoxy-8-((5-methoxy-6-((5-methoxypyridin-2-yl)methoxy)pyridin-3-yl)methyl)-1,5-naphthyridine]
- IC50 (PDGFRβ): > 1000 nM
- PDGFR-1β Fold (PDGFRβ): >100 fold
- EC50 [1]: 21.4 nM
- IV-2mpk CL ([2]; CD1 mouse, i.v. 2 mg/kg): 7.47 mL/min/kg
- IV-2mpk T1/2 ([2]; CD1 mouse, i.v. 2 mg/kg): 2.52 h
- Kp uu ([2]; po, mouse, p.o. 45 mg/kg): 1.1
- half-life [2, 7]: 2.52 h
- half-life [2, 8]: 1.9 h
- AUC(0-t) [2, 9]: 76800 ng·h/mL
- AUC(0-t) [2, 10]: 210000 ng·h/mL
- AUC(0-inf) [2, 11]: 4460 ng·h/mL
- AUC(0-t) [2, 12]: 4460 ng·h/mL
- clearance [2, 13]: 7.47 mL/min/kg
- Vd [2, 13]: 0.955 L/kg
- bioavailability ([2]; serum, po, CD1 mouse): 215%
- AUC(0-t) [2, 14]: 216000 ng·h/mL
- AUC(0-inf) [2, 15]: 216000 ng·h/mL
- Cmax [2, 16]: 31400 ng/mL
- Tmax [2, 16]: 1 h
- EC50 (BV2 cells): 45.4 nM
- EC50 [3]: 47.2 nM
- CSF1R phosphorylation in CSF1R-stimulated THP-1 monocytes [4]: dose-dependent inhibition of CSF1R phosphorylation
- EC50 [5]: 10.8 nM

SMILES: COc1cnc2c(Cc3cnc(OCc4cc5n(n4)CCOC5)c(OC)c3)ccnc2c1 [Example 73, 2-(((3-methoxy-5-((7-methoxy-1,5-naphthyridin-4-yl)methyl)pyridin-2-yl)oxy)methyl)-6,7-dihydro-4H-pyrazolo[5,1-c][1,4]oxazine]
- IC50 (PDGFRβ): > 1000 nM
- PDGFR-1β Fold (PDGFRβ): >100 fold
- IV-2mpk T1/2 ([2]; CD1 mouse, i.v. 2 mg/kg): 2.56 h
- Kp uu ([2]; po, mouse, p.o. 45 mg/kg): 0.67
- half-life [2, 7]: 2.52 h
- half-life [2, 8]: 1.57 h
- AUC(0-t) [2, 9]: 31800 ng·h/mL
- AUC(0-t) [2, 10]: 214000 ng·h/mL
- AUC(0-inf) [2, 11]: 9090 ng·h/mL
- AUC(0-t) [2, 12]: 9090 ng·h/mL
- clearance [2, 13]: 3.67 mL/min/kg
- Vd [2, 13]: 0.461 L/kg
- bioavailability ([2]; serum, po, CD1 mouse): 98.8%
- AUC(0-t) [2, 14]: 202000 ng·h/mL
- AUC(0-inf) [2, 15]: 202000 ng·h/mL
- Cmax [2, 16]: 100000 ng/mL
- Tmax [2, 16]: 0.5 h

SMILES: COc1ccc(COc2ncc(Cc3ccnc4cc(N5CCN(C)CC5)cnc34)cc2OC)nc1 [Example 116]
- IC50 (PDGFRβ): > 1000 nM
- PDGFR-1β Fold (PDGFRβ): >100 fold
- Kp uu ([2]; po, mouse, p.o. 45 mg/kg): 0.99
- half-life [2, 7]: 6.42 h
- half-life [2, 8]: 4.87 h
- AUC(0-t) [2, 9]: 4250 ng·h/mL
- AUC(0-t) [2, 10]: 4620 ng·h/mL
- AUC(0-inf) [2, 11]: 578 ng·h/mL
- AUC(0-t) [2, 12]: 566 ng·h/mL
- clearance [2, 13]: 57.7 mL/min/kg
- Vd [2, 13]: 9.54 L/kg
- bioavailability ([2]; serum, po, CD1 mouse): 42.1%
- AUC(0-t) [2, 14]: 5370 ng·h/mL
- AUC(0-inf) [2, 15]: 5480 ng·h/mL
- Cmax [2, 16]: 2310 ng/mL
- Tmax [2, 16]: 0.25 h

SMILES: COc1ccc(COc2ncc(Cc3ccnc4cc(-c5ccn(C)n5)cnc34)cc2OC)nc1 [Example 134, 8-((5-methoxy-6-((5-methoxypyridin-2-yl)methoxy)pyridin-3-yl)methyl)-3-(1-methyl-1H-pyrazol-3-yl)-1,5-naphthyridine]
- IC50 (PDGFRβ): 394 nM
- PDGFR-1β Fold (PDGFRβ): 59.7 fold
- Kp uu ([2]; po, mouse, p.o. 45 mg/kg): 0.75
- half-life [2, 7]: 1.39 h
- half-life [2, 8]: 1.86 h
- AUC(0-t) [2, 9]: 44400 ng·h/mL
- AUC(0-t) [2, 10]: 88400 ng·h/mL
- AUC(0-inf) [2, 11]: 1890 ng·h/mL
- AUC(0-t) [2, 12]: 1860 ng·h/mL
- clearance [2, 13]: 17.7 mL/min/kg
- Vd [2, 13]: 1.45 L/kg
- bioavailability ([2]; serum, po, CD1 mouse): 227%
- AUC(0-t) [2, 14]: 96400 ng·h/mL
- AUC(0-inf) [2, 15]: 96500 ng·h/mL
- Cmax [2, 16]: 18100 ng/mL
- Tmax [2, 16]: 0.5 h
- decrease of microglia density in the cortex compared to vehicle control ([6]; 50 mg/kg): > 22%
- Mean Cortical Ibal + Cell Density ± SEM (mm^−2) ([6]; 50 mg/kg): 63.6 ± 8.1 mm^−2
- Mean Hippocampal Ibal + Cell Density ± SEM (mm^−2) ([6]; 50 mg/kg): 73.3 ± 7.8 mm^−2
- decrease of microglia density in the cortex compared to vehicle control ([6]; 100 mg/kg): > 91%
- decrease of microglia density in the hippocampus relative to vehicle control ([6]; 100 mg/kg): > 83%
- Mean Cortical Ibal + Cell Density ± SEM (mm^−2) ([6]; 100 mg/kg): 6.9 ± 1.2 mm^−2
- Mean Hippocampal Ibal + Cell Density ± SEM (mm^−2) ([6]; 100 mg/kg): 13.6 ± 2.2 mm^−2
- decrease of microglia density in the cortex compared to vehicle control ([6]; 200 mg/kg): > 98%
- decrease of microglia density in the hippocampus relative to vehicle control ([6]; 200 mg/kg): > 93%
- Mean Cortical Ibal + Cell Density ± SEM (mm^−2) ([6]; 200 mg/kg): 1.5 ± 0.3 mm^−2
- Mean Hippocampal Ibal + Cell Density ± SEM (mm^−2) ([6]; 200 mg/kg): 5.6 ± 0.9 mm^−2

SMILES: COc1cnc2c(Cc3cnc(OCc4cc5n(n4)C[C@H](OC)C5)c(OC)c3)ccnc2c1 [Example 136, (R)-3-methoxy-8-((5-methoxy-6-((5-methoxy-5,6-dihydro-4H-pyrrolo[1,2-b]pyrazol-2-yl)methoxy)pyridin-3-yl)methyl)-1,5-naphthyridine]
- IC50 (PDGFRβ): > 1000 nM
- PDGFR-1β Fold (PDGFRβ): >100 fold
- Kp uu ([2]; po, mouse, p.o. 45 mg/kg): 0.94
- half-life [2, 7]: 0.777 h
- AUC(0-t) [2, 9]: 16200 ng·h/mL
- AUC(0-t) [2, 10]: 93200 ng·h/mL
- AUC(0-inf) [2, 11]: 4940 ng·h/mL
- AUC(0-t) [2, 12]: 4940 ng·h/mL
- clearance [2, 13]: 6.75 mL/min/kg
- Vd [2, 13]: 0.274 L/kg
- bioavailability ([2]; serum, po, CD1 mouse): 77.1%
- AUC(0-t) [2, 14]: 85700 ng·h/mL
- Cmax [2, 16]: 51200 ng/mL
- Tmax [2, 16]: 0.5 h
